Article PMC2928300, “Transcriptional Regulation of Human and Rat Hepatic Lipid Metabolism by the Grapefruit Flavonoid Naringenin: Role of PPARα, PPARγ and LXRα” (PLoS ONE, 2010)
One block for each compound: values may come before it.

How the values were obtained:
[1] = biological target: T1, LXRα (Homo sapiens, UniProt Q13133); assay: LanthaScreen TR-FRET coactivator recruitment, purified LBD (EC80 measured in this assay); assay type: binding
T1 construct: gene NR1H3
T1 sequence (Q13133 209-447 limits assumed): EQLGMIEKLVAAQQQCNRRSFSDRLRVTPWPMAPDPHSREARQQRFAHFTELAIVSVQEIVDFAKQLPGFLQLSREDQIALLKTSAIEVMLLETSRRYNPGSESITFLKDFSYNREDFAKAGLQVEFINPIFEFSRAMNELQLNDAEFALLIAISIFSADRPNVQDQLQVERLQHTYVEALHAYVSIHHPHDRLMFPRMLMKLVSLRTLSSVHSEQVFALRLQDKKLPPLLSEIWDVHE

[2] = biological target: T2, PPARγ (Homo sapiens, UniProt P37231); assay: GAL4-PPARγ LBD luciferase reporter in HG5LN (HeLa) cells; assay type: cell-based; conditions: read-out: % activation at 80 μM
T2 construct: gene PPARG; GAL4(1–147)-PPARγ LBD fusion
T2 sequence (P37231 231-505 limits assumed): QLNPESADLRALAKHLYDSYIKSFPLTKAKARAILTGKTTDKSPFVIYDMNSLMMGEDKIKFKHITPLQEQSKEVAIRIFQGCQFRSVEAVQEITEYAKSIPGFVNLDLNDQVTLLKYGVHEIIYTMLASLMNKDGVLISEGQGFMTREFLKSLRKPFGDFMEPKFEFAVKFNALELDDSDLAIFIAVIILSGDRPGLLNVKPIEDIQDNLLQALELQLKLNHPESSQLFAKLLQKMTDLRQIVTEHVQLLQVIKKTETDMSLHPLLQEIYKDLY

[3] = biological target: T1, LXRα; assay: LanthaScreen TR-FRET coactivator recruitment, agonist and antagonist modes, purified LBD; supported by GAL4-LBD reporter; assay type: biochemical
[4] = biological target: recombinant LXRα ligand-binding domain, GST-tagged; assay: FRET or BRET; LanthaScreen TR-FRET coactivator assay, cell-free, agonist mode: GST-LXRα LBD labelled by terbium anti-GST antibody, fluorescein Trap220 peptide, increasing naringenin; percent activation compared to maximal activation of positive control (TO901317)
[5] = biological target: recombinant LXRα ligand-binding domain, GST-tagged; assay: FRET or BRET; LanthaScreen TR-FRET coactivator assay, cell-free, antagonist mode: GST-LXRα LBD, fluorescein Trap220 peptide, TO901317 at its EC80 in all wells (250 nM by methods and legend, 1 µM by the results text), increasing naringenin

Compound: O=S(=O)(c1ccccc1)N(CC(F)(F)F)c1ccc(C(O)(C(F)(F)F)C(F)(F)F)cc1 [TO901317]
LanthaScreen TR-FRET coactivator recruitment, purified LBD (EC80 measured in thi) [1]: 250 nM

Compound: O=C1C[C@@H](c2ccc(O)cc2)Oc2cc(O)cc(O)c21 [naringenin]
Emax at 80 µM [2]: 57 ± 0.3%
% activation [3]: 38.0±2.8 % activation

percent activation of TR-FRET signal with naringenin, relative to TO901317 [4]: 38%
percent inhibition of binding by 133 µM naringenin in the presence of 1 µM TO901317 [5]: 11.6%
percent inhibition of the TR-FRET signal by 133 µM naringenin with 250 nM TO901317 [5]: 15%
Compound: fluorescein-labeled Trap 220/Drip-2 co-activator peptide
